Source: patent publication US11786515B2, “Anesthetic mixtures formulations for local anesthesia, at very low concentration, to be used cold with suitable packaging” (L. MOLTENI & C. DEI FRATELLI ALITTI-SOCIETA′ DI ESERCIZIO …, priority 2018, dated 2023)
Where a name gives a salt, the structure may show the parent alone.

What was measured:
[1] = Toxic and maximum doses of local anesthetics (state of the art)
Description: The Articaine hydrochloride always belongs to the group of the short-acting local anesthetics.

[2] = cited from earlier work; for toxic dose: long-acting anesthetics
[3] = combined with a vasoconstrictor such as adrenaline

Compound | maximum volume ([1]; 5 mg/ml solution (0.5%)) | toxic dose [2] | other results
CCN(CC)CC(=O)Nc1c(C)cccc1C [Lidocaine, Lidocaine hydrochloride] | – | – | maximum volume ([1]; human, in vivo): 15 mL; maximum dosage [2, 3]: 7 mg/kg; maximum dose [2, 3]: 500 mg
CCCCN1CCCCC1C(=O)Nc1c(C)cccc1C (centres unmarked) [Bupivacaine hydrochloride] | 30 mL | 2 mg/kg body | –
CCCNC(C)C(=O)Nc1c(C)csc1C(=O)OC (centres unmarked) [Articaine hydrochloride] | – | – | toxic dose / tolerance compared with other short-acting anesthetics ([2]; in vivo): overlapping to that of the lidocaine and mepivacaine
CCCCN1CCCC[C@H]1C(=O)Nc1c(C)cccc1C [Levobupivacaine hydrochloride] | 30 mL | 2 mg/kg body | –
